Experimental data reported in patent US5506102A (priority 1993, dated 1996).

Tests used:
[1] = test system: human estrogen receptor; test: ER transcriptional activity on MMTV-ERE-LUC, CV-1 cells, ER co-expressed with PR-A; assay type: cell-based
Protocol: All values were normalized for transfection efficiency by simultaneous estimation of luciferase and β-galactocidase activities. The relative luciferase activity is calculated by dividing the normalized luciferase value at a given point by that obtained in the absence of transfected receptor or ligand. Data shown represent the mean +/- the average deviation from the mean of triplicate estimations.
Experimental protocols and data calculation are as described in FIG. 11. The experiment detailed above is representative of independent assays (N>3). Data shown represent the mean +/- the average deviation from the mean of triplicate estimations.
Vegeto et al., supra. Cells were plated into 96-well tissue culture plates. The vector DNA was introduced into the CV-1 cells using calcium phosphate coprecipitation as described herein. More specifically, 20 μg of DNA/ml of transfection buffer were used in each transfection. Each transfection mix included 0.5 μg of pRST7hER, 9.5 μg of MMTV-ERE-LUC, 5 μg of pCH110, (which contains the gene for β-galactosidase) as an internal control and 5 μg of PGEM4 DNA as a carrier. Depending on the experiment, 0.1 μg pSVhPR-A or pSVhPR-B and an amount of pSVXV2neo (Dr. Bert O'Malley, Baylor College of Medicine) to bring the total amount of DNA to 20 μg was added. The concentration of pXVhPR-A vector chosen was determined by performing the experiment at several different concentrations of vector, and then using that concentration that was optimal for transcriptional readout. The concentration of pSVhPR-B vector was chosen based upon the amount required to give an identical amount of immunoreactive PR-A and PR-B. After transfections using a Biomek 1000 automated laboratory workstation, the cells were incubated with the precipitate for 6 hours. Cells were washed with PBS and incubated for 40 hours with or without hormones as indicated. Cell extracts were prepared as previously described herein and assayed for luciferase (LUC) and β-galactosidase activities. The Normalized LUC activity was calculated by dividing the raw luciferase (×10^4) units for each point by the β-galactosidase activity [(OD415 nm ×10^5)/time min.] at that point.

[2] = test system: human estrogen receptor; test: ER transcriptional activity on C3-LUC (complement C3 promoter), CV-1 cells, with PR-A; assay type: cell-based; conditions: PR-A co-expressed, CV-1, FIG. 14B
Protocol: (§1) The experimental protocols and data calculation are as described in FIG. 11 with the exception that the MMTV-ERE-LUC reporter plasmid was replaced with either the ERE-TK-LUC or C3-LUC reporters plasmids. The experiment detailed above is representative of several independent assays. Each measurement was performed in triplicate.
(§2) The experimental protocols and data calculation are as described in Example 8 with the exception that the MMTV-ERE-LUC reporter plasmid was replaced with either ERE-TK-LUC or C3-LUC.

[3] = test system: human estrogen receptor; test: ER transcriptional activity on ERE-TK-LUC, CV-1 cells, with PR-A; assay type: cell-based; conditions: PR-A co-expressed, CV-1, FIG. 14A
Protocol: as §1, §2

[4] = test system: ER; test: ER transcriptional activity on MMTV-ERE-LUC in HepG2 and HS578T cells; assay type: cell-based; conditions: data not shown
[5] = test system: primate uterus and oviducts; conditions: cited from earlier work

Structure (SMILES): CC#C[C@]1(O)CC[C@H]2[C@@H]3CCC4=CC(=O)CCC4=C3[C@@H](c3ccc(N(C)C)cc3)C[C@@]21C [RU486, 11β-(4-dimethylaminophenyl)-17β-hydroxy-17α-(1-propynyl)-4,9-estradien-3-one]
- suppression of ER mediated activation of complement C3 promoter [2]: effectively suppressed
- suppression of ER mediated activation of ERE-TK promoter [3]: effectively suppressed
- anti-estrogenic activity ([4]; HS578T cells): both anti-progestins functioned as anti-estrogens
- anti-estrogenic activity ([4]; HepG2 cells): neither anti-progestin exhibited any anti-estrogenic activity
- activity in oviducts ([5]; oviducts of the same animal (primate)): only manifests anti-progestenic activity
